How the values were obtained:
Caco-2 cells = details: compound 30 μM on both sides, Rhodamine 123 10 μM, Bl-Ap direction, Caco-2 monolayers; read from FIG. 2
in vivo = details: male, Wistar-Hannover, rat, plasma, po, 12 mg/kg
Procedure: Male, Wistar-Hannover rats (257-313 g) were used; animals were cannulated in the jugular vein for blood sampling. Animals were individually housed at 18-26° C. with 30-70% humidity. Animals were allowed free movement and access to water with 12 h dark and light cycles. Dosing was 2-4 h after the beginning of a light cycle and dosing time across each group was consistent. All animals had access to water, ad libitum, and were fasted 8 h prior to dosing; food was returned 5 h post-dose. Animals were dosed using a 1 mL syringe. Group 1, the intravenous group (raloxifene, 2.5 mg/kg), was dosed using an infusion rate of ˜0.3 mL per minute.
Sampling—using an AccuSampler®, blood samples (˜120 μL) were collected from 4 animals/group/time point from a catheter inserted into the jugular vein. Blood samples were taken and removed blood volume was replaced by an equivalent volume of intraperitoneal saline after each draw. Blood samples were centrifuged and plasma transferred into a designated well of a 96-well plate. Samples were kept frozen (−80±10° C.) until sample preparation and HPLC/MS/MS analysis.
Internal standard (IS) solution was prepared in a 500 mL volumetric flask containing 1:1 v/v acetonitrile:methanol and ˜0.04 μM of saquinavir base. Individually, the 96-well plates were removed from the freezer (−80±10° C.) and allowed to warm to ambient temperature (˜45-50 min). The in vivo plasma samples, either 25 or 50 μL, were transferred into separate 1.5 mL micro-centrifuge tubes. Total plasma volume was brought to ˜100 μL by adding male Wistar-Hannover plasma (potassium EDTA). Subsequently, 200 μL of IS solution was added, capped, mixed (˜5 sec) and centrifuged at 13,200 rpm for 10 mm using an Eppendorf minispin centrifuge. The supernatant (˜250 μL) was transferred into individual wells of a 96-well plate. The 96-well plate was sealed and centrifuged at 3000 rpm for 10 min at 10° C. […] The 96-well plate was then placed into the auto-sampler cool-stack (˜6° C.) and analyzed via LC/MS/MS. Raloxifene, and raloxifene glucuronide standard curves and quality control (QC's) samples were prepared in an analogous way as described above. […] The limit of detection (LOD) for raloxifene was ˜0.2 ng/mL while the glucuronides were ˜0.1 ng/mL.

Row | AUC(0-t) (in vivo) [ng·h/mL] | Cmax (in vivo) [ng/mL] | Tmax (in vivo) [h] | bioavailability (in vivo) [%] | Molecule | RHO in vitro efflux inhibition (Caco-2 cells) [%]
1 |  |  |  |  | d-α-tocopheryl polyethylene glycol succinate [TPGS 1000] | ~40
2 | 452 | 50 to 60 | ~4 | 3.6 ± 0.8 | O=C(c1ccc(OCCN2CCCCC2)cc1)c1c(-c2ccc(O)cc2)sc2cc(O)ccc12 [raloxifene] | 
